Tests used:
lymph node cells (LNC) = test: T-cell proliferation ([methyl-3H]-thymidine incorporation, stimulation index) of cells from vaccinated rats; assay type: cell-based, Lewis rats; details: for T-cell response to the immunizing peptide: LNC of peptide-vaccinated rats after AA induction
Procedure: Popliteal and inguinal lymph node cells (LNC) taken 26 days after the induction of AA were cultured in quadruplicates in 200 μl round bottom microtiter wells (Costar Corp., Cambridge, USA) at 2×10^5 cells per well with or without antigen. The T-cell mitogen Concanavalin A (Con A) was used as a positive control for T-cell proliferation. Cultures were incubated for 96 hrs at 37° C. in a humidified atmosphere of 5% CO2. T-cell responses were detected by the incorporation of [methyl-^3H]-thymidine (Amersham, Buckinghamshire, UK; 1 μCi/well), which was added to the wells for the last 18 hours. The stimulation index (SI) was computed as the ratio of the mean c.p.m. of antigen- or mitogen-containing wells to control wells cultured with medium alone.

adjuvant arthritis (AA) [1] = test: Adoptive transfer of Con A-activated splenocytes from peptide-vaccinated rats, then AA induction in recipients; assay type: in vivo, Lewis rats; details: 5×10^7 Con A-activated splenocytes of peptide-vaccinated donors iv; AA induced three days later
Procedure: Spleen cells were prepared from peptide-vaccinated rats 26 days after the induction of AA. The splenocytes (10^7 cells per ml) were activated with 2.5 μg/ml of Con A for 48 hr at 37° C. in a humidified atmosphere of 5% CO2. The cells were washed with sterile PBS and injected iv into naïve rats (5×10^7 cells per rat). Three days after the transfer of the splenocytes, AA was induced.
To learn whether the protection triggered by Hu3-vaccination could be adoptively transferred by activated T-cells, splenocytes prepared from Hu3 vaccinated rats were stimulated in vitro for 2 days with the T-cell mitogen Con A, washed, and injected iv (5×10^7 cells per rat) into naïve rats. Only the recipients of cells taken from Hu3-vaccinated rats were protected against the subsequent induction of AA (FIGS. 4A and 4B). […] Thus, inhibition of AA by vaccination with Hu3 could be adoptively transferred by activated T-cells.

[2] = system: IFNγ, IL-10 and TGFβ1 secretion by LNC; test: Cytokine assays (ELISA of culture supernatants after 72 hrs antigen stimulation); assay type: cell-based, Lewis rats
Text: Supernatants were collected after 72 hrs of stimulation with each of the antigens tested. Rat IL-10 and IFNγ were quantitated in culture supernatants by enzyme-linked immunosorbent assay (ELISA) using Pharmingen's OPTEIA kit (Pharmingen, San Diego, USA). Rat TGFβ1 was quantified using the TGFβ1 Emax® ImmunoAssay System (Promega, Madison, USA) according to the manufacturer's instructions. Cytokine levels in supernatants are expressed as pg/ml based on calibration curves constructed using recombinant cytokines as standards. The lower limits of detection for the experiments described in this paper were 15 pg/ml for TGFβ1, IL-10 and IFNγ.

adjuvant arthritis (AA) [3] = test: Adjuvant arthritis (AA) induction and assessment after DNA or peptide vaccination; assay type: in vivo, Lewis rats
Procedure: Plasmid DNA was prepared in large scale and injected after pretreatment with cardiotoxin (Sigma, Rehovot, Israel). Briefly, rats were vaccinated in the quadriceps three times (on days −40, −26 −12 relative to AA induction) with 150 μg of pcDNA3, pI, pII, pIII, pIV or pV. Endotoxin levels were checked by Limulus Amoebocyte Lysate and found always to be under acceptable levels for in vivo use (less than 0.02 EU/μg DNA). AA was induced 12 days after the last injection of DNA. The empty vector pcDNA3 was used as a DNA vaccination control.
AA was induced using 1 mg per rat of heat-killed Mt strain H37Ra (Difco). The day of AA induction was designated as day 0, and disease severity was assessed by direct observation of all 4 limbs in each animal. A relative score between 0 and 4 was assigned to each limb, based on the degree of joint inflammation, redness and deformity; thus the maximum possible score for an individual animal was 16. Arthritis was also quantified by measuring hind limb diameter with a caliper. Measurements were taken on the day of AA induction and 26 days later, and they are presented as the mean±SEM of the difference between the two values. The person who scored the disease was blinded to the identity of the groups. […]

[4] = LNC day 26 after AA induction, 72 hr
[5] = LNC of peptide-vaccinated rats, day 26 after AA induction

Sequence | T-cell response to the immunizing peptide (lymph node cells (LNC)) | protection of recipients against subsequent induction of AA (adjuvant arthritis (AA) [1]) | T-cell response to the immunizing peptide (lymph node cells (LNC); listed as HU12) | T-cell proliferative responses to both self- and mycobacterial antigens (lymph node cells (LNC); LNC day 26 after AA induction) | proliferative response to HSP60 (lymph node cells (LNC); LNC day 26 after AA induction) | proliferative response to control peptide Hu12 (lymph node cells (LNC); LNC day 26 after AA induction) | proliferative response to Hu3 (lymph node cells (LNC); LNC day 26 after AA induction, stimulated in vitro with Hu3) | T-cell proliferative responses to mycobacterial antigens (PPD, HSP65, Mt176-190) (lymph node cells (LNC); LNC day 26 after AA induction, relative to controls) | IFNγ secretion upon stimulation with mycobacterial antigens (PPD, HSP65, Mt176-190) [2, 4] | IL-10 secretion upon stimulation with mycobacterial antigens (PPD, HSP65, Mt176-190) [2, 4] | TGFβ1 secretion upon stimulation with mycobacterial antigens (PPD, HSP65, Mt176-190) [2, 4] | secretion of IFNγ, stimulated with Hu3 ([2]; LNC day 26 after AA induction, relative to respective controls (FIG. 12B)) | cytokine response to whole HSP60 [2, 5] | cytokines secreted in response to Hu3 [2, 5] | ankle swelling (adjuvant arthritis (AA) [3]; peptide vaccination 100 μg in IFA day −7, day 26 after AA induction, vs 32.2±3.5 in PBS/IFA, p=0.02) | AA disease severity after peptide vaccination (adjuvant arthritis (AA) [3]; single i.p. dose of 100 μg peptide in IFA on day −7, compared to non-immunized rats or PBS, Hu12 or Mt3)
AYDEEARRGLERGLNALADA [Mt3, mycobacterial HSP65 peptide, counterpart of Hu3, reference compound] | significant and specific T-cell responses | No protection | – | – | – | – | – | – | – | – | – | – | – | – | – | –
EEIAQVATISANGDKEIGNI [Hu12, human HSP60 peptide 166-185, control peptide, reference compound] | significant and specific T-cell responses | – | proliferated | – | – | – | – | – | – | – | – | – | – | – | – | –
KFGADARALMLQGVDLLADA (listed as Homo sapiens) [Hu3] | significant and specific T-cell responses | protected | – | up-regulation | induction of a specific response | no responses | recognized | up-regulated | reduction | increase | increase | increased | predominantly TFGβ1 | secreted IFNγ, IL-10 and TGFβ1 | 14.2±4.7 | significantly decreased disease

Source: US8361987B2, “DNA vaccines encoding heat shock proteins” (priority 2002, dated 2013)
